In brackets after ≈: the same amount, converted by molar mass.
Tests used:
[1] = target: Core antigen (Hepatitis B virus) (UniProt Q03732); assay: Modulation of capsid assembly in HBV infected in human HePAD38 cells assessed as inhibition of viral DNA replication measured after 96 hrs by qPCR analysis; type: cell-based; conditions: filed as modulator
[2] = Ratio of EC50 for antiviral activity against HBV harboring core protein F110I mutant to EC50 for antiviral activity against HBV harboring wild type core protein; type: functional, Hepatitis B virus
[3] = Cytotoxicity against human HePAD38 cells up to 10 uM by CellTiter-Blue assay; type: toxicity, cell-based; conditions: hepad38, 10 µM
[4] = Mutagenicity in Salmonella typhimurium upto 1250 ug/plate in presence of S9 fraction by Ames test; type: toxicity, subcellular; conditions: salmonella enterica subsp. enterica serovar typhimurium, dose < 1250 µg
[5] = Cmax in C57BL/6 mouse at 5 mg/kg, po; type: ADME, organism-based; parameters: dose 5 mg/kg, route po; conditions: in vivo
[6] = tested on: Hepatitis B virus; assay: Antiviral activity against HBV in HBV transgenic mouse assessed as inhibition of viral replication by measuring fold reduction of serum HBV DNA content at 75 mg/kg, po BID for 3 days relative to control; type: functional; conditions: time 3 day
[7] = Mutagenicity in Salmonella typhimurium upto 1250 ug/plate in absence of S9 fraction by Ames test; type: toxicity; conditions: salmonella enterica subsp. enterica serovar typhimurium, dose < 1250 µg
[8] = Mutagenicity in Escherichia coli upto 1250 ug/plate in presence of S9 fraction by Ames test; type: toxicity, subcellular; conditions: dose < 1250 µg
[9] = Half life in C57BL/6 mouse at 2 mg/kg, iv; type: ADME, organism-based; conditions: in vivo
[10] = Ratio of EC50 for antiviral activity against HBV harboring core protein V124G mutant to EC50 for antiviral activity against HBV harboring wild type core protein; type: functional, Hepatitis B virus
[11] = tested on: Hepatitis B virus; assay: Antiviral activity against HBV in HBV transgenic mouse assessed as inhibition of viral replication by measuring log reduction of serum HBV DNA content at 75 mg/kg, po BID for 3 days; type: functional; conditions: time 3 day
[12] = Ratio of drug concentration in liver to blood in C57BL/6 mouse at 5 mg/kg, po measured after 4 hrs; type: ADME, organism-based
[13] = target: T1, Cytochrome P450 1A2 (Homo sapiens, UniProt P05177); assay: Inhibition of CYP1A2 (unknown origin); type: ADME
T1 sequence (P05177 whole entry): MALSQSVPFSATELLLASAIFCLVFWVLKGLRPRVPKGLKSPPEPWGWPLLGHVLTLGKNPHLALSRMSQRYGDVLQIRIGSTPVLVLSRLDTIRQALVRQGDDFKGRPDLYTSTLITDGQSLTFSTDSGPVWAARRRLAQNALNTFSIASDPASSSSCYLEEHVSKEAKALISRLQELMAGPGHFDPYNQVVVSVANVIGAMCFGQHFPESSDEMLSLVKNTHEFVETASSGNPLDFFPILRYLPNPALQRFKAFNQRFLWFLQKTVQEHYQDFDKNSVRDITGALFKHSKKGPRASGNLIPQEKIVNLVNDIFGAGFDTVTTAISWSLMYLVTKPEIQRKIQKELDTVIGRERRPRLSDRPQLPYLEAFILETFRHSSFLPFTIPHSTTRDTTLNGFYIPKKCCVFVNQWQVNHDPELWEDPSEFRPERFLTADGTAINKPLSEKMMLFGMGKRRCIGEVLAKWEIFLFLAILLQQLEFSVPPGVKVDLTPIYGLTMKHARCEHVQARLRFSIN

[14] = Ratio of EC50 for antiviral activity against HBV harboring core protein F23Y mutant to EC50 for antiviral activity against HBV harboring wild type core protein; type: functional, Hepatitis B virus
[15] = Kinetic solubility of the compound at pH 7.4; type: physicochemical; conditions: buffer, read-out: Kinetic_solubility
[16] = Metabolic stability of the compound in human hepatocytes assessed as parent compound remaining measured after 4 hrs; type: ADME, cell-based, Hepatocyte; conditions: read-out: Stability
[17] = Ratio of EC50 for antiviral activity against HBV harboring core protein T33P mutant to EC50 for antiviral activity against HBV harboring wild type core protein; type: functional, Hepatitis B virus
[18] = Ratio of EC50 for antiviral activity against HBV harboring core protein I105T mutant to EC50 for antiviral activity against HBV harboring wild type core protein; type: functional, Hepatitis B virus
[19] = target: Core antigen (Hepatitis B virus) (UniProt Q03732); assay: Modulation of capsid assembly in HBV infected in human HePAD38 cells assessed as fold shift in inhibition of viral DNA replication in presence of 40% normal human serum measured after 96 hrs by qPCR analysis; type: cell-based; conditions: filed as modulator
[20] = tested on: Hepatitis B virus; assay: Antiviral activity against HBV in HBV transgenic mouse assessed as inhibition of viral replication by measuring reduction of serum HBV DNA content administered orally BID for 3 days; type: functional, organism-based; conditions: dose 25-75 mg/kg, route po, time 3.0 day, DDE = dose-dependent effect
[21] = Ratio of EC50 for antiviral activity against HBV harboring core protein T33N mutant to EC50 for antiviral activity against HBV harboring wild type core protein; type: functional, Hepatitis B virus
[22] = Volume of distribution in C57BL/6 mouse at 2 mg/kg, iv; type: ADME, organism-based; conditions: in vivo
[23] = tested on: Hepatitis B virus; assay: Antiviral activity against HBV in HBV transgenic mouse assessed as inhibition of viral replication by measuring fold reduction of serum HBV DNA content at 25 mg/kg, po BID for 3 days relative to control; type: functional; conditions: time 3 day
[24] = Toxicity in HBV transgenic mouse assessed as liver damage at 25 to 75 mg/kg, po BID for 3 days; type: organism-based; conditions: in vivo, 72 h, dose 25-75 mg/kg, time 3 day
[25] = target: Voltage-gated inwardly rectifying potassium channel KCNH2 (Homo sapiens, UniProt Q12809); assay: Inhibition of hERG; type: toxicity
Sequence of Voltage-gated inwardly rectifying potassium channel KCNH2 (Q12809 whole entry): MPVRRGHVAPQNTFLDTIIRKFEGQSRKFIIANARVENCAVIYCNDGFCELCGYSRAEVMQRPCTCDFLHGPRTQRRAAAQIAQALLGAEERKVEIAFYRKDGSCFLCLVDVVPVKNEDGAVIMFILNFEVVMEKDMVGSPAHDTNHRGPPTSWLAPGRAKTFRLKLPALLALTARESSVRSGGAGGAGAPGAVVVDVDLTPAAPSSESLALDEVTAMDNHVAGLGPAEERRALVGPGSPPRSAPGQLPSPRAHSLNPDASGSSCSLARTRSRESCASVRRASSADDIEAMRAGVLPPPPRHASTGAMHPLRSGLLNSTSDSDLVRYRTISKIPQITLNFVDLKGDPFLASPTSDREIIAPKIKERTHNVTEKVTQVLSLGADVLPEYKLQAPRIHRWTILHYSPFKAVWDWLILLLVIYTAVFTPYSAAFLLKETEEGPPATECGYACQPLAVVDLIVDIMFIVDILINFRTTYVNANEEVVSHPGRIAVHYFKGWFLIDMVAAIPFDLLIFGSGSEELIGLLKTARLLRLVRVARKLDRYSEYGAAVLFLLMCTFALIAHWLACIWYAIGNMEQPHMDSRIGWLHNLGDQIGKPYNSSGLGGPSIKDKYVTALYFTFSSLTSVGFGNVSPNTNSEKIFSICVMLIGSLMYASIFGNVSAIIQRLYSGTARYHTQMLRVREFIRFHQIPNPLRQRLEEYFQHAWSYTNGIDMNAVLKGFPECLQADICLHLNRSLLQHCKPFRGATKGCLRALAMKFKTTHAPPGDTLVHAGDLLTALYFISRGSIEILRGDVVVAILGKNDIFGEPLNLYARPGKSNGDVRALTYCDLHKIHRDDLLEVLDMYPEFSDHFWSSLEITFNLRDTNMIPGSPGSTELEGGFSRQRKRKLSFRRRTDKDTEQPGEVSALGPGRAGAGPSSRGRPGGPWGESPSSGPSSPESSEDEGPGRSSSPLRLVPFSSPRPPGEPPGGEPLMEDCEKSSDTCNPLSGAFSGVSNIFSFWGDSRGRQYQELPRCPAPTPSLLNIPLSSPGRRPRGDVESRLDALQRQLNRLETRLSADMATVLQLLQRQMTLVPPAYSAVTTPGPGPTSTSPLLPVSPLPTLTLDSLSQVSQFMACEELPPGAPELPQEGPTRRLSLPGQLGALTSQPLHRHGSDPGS

[26] = Mutagenicity in Escherichia coli upto 1250 ug/plate in absence of S9 fraction by Ames test; type: toxicity; conditions: dose < 1250 µg
[27] = Metabolic stability of the compound in mouse hepatocytes assessed as parent compound remaining measured after 4 hrs; type: ADME, cell-based, Hepatocyte; conditions: read-out: Stability
[28] = tested on: Hepatitis B virus; assay: Antiviral activity against HBV in HBV transgenic mouse assessed as inhibition of viral replication by measuring reduction of serum HBV DNA content at 25 to 75 mg/kg, po BID for 3 days; type: functional, organism-based; conditions: dose 25-75 mg/kg, time 3.0 day, TDE = time-dependent effect
[29] = Ratio of EC50 for antiviral activity against HBV harboring core protein Y118F mutant to EC50 for antiviral activity against HBV harboring wild type core protein; type: functional, Hepatitis B virus
[30] = Ratio of EC50 for antiviral activity against HBV harboring core protein T128I mutant to EC50 for antiviral activity against HBV harboring wild type core protein; type: functional, Hepatitis B virus
[31] = AUC in C57BL/6 mouse at 5 mg/kg, po and 2 mg/kg, iv; type: ADME, organism-based; parameters: dose 5 mg/kg, route po; conditions: in vivo
[32] = Oral bioavailability in C57BL/6 mouse at 5 mg/kg; type: ADME, organism-based; conditions: in vivo
[33] = target: Cytochrome P450 2D6 (Homo sapiens, UniProt P10635); assay: Inhibition of CYP2D6 (unknown origin); type: ADME
Sequence of Cytochrome P450 2D6 (P10635 whole entry): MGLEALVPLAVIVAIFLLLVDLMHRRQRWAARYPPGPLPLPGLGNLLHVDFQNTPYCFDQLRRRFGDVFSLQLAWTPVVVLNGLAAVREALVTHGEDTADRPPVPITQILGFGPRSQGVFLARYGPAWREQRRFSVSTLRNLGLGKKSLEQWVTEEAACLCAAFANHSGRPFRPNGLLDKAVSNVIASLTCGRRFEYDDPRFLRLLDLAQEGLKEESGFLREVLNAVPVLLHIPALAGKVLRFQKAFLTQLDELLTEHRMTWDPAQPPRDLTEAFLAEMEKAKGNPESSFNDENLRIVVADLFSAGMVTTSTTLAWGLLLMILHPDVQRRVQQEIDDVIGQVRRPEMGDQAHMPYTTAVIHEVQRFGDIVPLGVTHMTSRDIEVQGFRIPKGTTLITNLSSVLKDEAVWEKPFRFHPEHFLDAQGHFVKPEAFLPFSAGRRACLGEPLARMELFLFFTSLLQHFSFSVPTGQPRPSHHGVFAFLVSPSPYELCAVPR

[34] = Ratio of EC50 for antiviral activity against HBV harboring core protein L37Q mutant to EC50 for antiviral activity against HBV harboring wild type core protein; type: functional, Hepatitis B virus
[35] = tested on: Hepatitis B virus; assay: Antiviral activity against HBV in HBV transgenic mouse assessed as inhibition of viral replication by measuring log reduction of serum HBV DNA content at 25 mg/kg, po BID for 3 days; type: functional; conditions: time 3 day
[36] = target: Cytochrome P450 3A4 (Homo sapiens, UniProt P08684); assay: Inhibition of CYP3A4 (unknown origin); type: ADME
Sequence of Cytochrome P450 3A4 (P08684 whole entry): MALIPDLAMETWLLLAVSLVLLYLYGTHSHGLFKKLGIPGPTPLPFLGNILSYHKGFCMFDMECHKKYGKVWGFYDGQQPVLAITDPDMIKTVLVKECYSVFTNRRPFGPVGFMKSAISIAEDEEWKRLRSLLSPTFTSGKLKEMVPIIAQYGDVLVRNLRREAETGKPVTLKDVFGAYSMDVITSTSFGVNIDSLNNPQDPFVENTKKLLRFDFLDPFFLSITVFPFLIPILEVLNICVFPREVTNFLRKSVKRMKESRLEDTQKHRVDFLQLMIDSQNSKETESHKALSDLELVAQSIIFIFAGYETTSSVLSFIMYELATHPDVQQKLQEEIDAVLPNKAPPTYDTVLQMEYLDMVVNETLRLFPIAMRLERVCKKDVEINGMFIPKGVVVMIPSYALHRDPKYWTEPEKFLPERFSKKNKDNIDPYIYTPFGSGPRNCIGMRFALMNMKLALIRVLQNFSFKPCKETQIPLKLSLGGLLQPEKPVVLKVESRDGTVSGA

[37] = tested on: HepG2 2.2.15; assay: Cytotoxicity against human HepG2.2.15 cells up to 10 uM by CellTiter-Blue assay; type: toxicity, cell-based; conditions: hepg2 2.2.15, 10 µM
[38] = Plasma clearance in C57BL/6 mouse at 2 mg/kg, iv; type: ADME, organism-based

Sequence of Core antigen (Hepatitis B virus) (Q03732 as listed by the source): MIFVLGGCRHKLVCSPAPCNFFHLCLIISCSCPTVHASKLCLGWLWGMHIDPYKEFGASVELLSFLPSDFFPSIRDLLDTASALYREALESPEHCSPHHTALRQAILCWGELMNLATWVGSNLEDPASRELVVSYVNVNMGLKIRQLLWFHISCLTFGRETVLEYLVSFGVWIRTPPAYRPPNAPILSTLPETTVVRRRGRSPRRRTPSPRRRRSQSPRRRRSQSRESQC

With `Cc1cc(N)c(S(N)(=O)=O)cc1C(=O)Nc1ccc(F)c(C(F)F)c1` the EC90 [1] was 660 nM.
With `Nc1cc(F)c(C(=O)Nc2cc(F)c(F)c(F)c2)cc1S(N)(=O)=O` the EC90 [1] was 1090 nM.
`Cc1cc(C(=O)Nc2cc(F)c(F)c(F)c2)cc(S(N)(=O)=O)c1N` showed an EC90 [1] of 1540 nM.
Work on `Nc1ccc(C(=O)Nc2ccc(F)c(C(F)(F)F)c2)cc1S(N)(=O)=O` yielded an EC90 [1] of 3650 nM.
`Nc1cc(Cl)c(C(=O)Nc2cc(F)c(F)c(F)c2)cc1S(N)(=O)=O` gave an EC90 [1] of 1240 nM.
`N#Cc1cc(NC(=O)c2ccc(N)c(S(N)(=O)=O)c2)ccc1F` gave an EC90 [1] of 2530 nM.
Work on `Cc1cc(N)c(S(N)(=O)=O)cc1C(=O)Nc1ccc(F)c(C(F)(F)F)c1` yielded an EC90 [1] of 2630 nM.
For `Cc1cc(N)c(S(N)(=O)=O)cc1C(=O)Nc1ccc(F)c(C#N)c1`, the EC90 [1] was 1210 nM.
Molecule `NS(=O)(=O)c1cc(C(=O)Nc2cc(F)c(F)c(F)c2)ccc1F` has an EC90 [1] of 8130 nM.
In the case of `Nc1ccc(C(=O)Nc2ccc(F)c(Cl)c2)cc1S(N)(=O)=O`, the EC90 [1] is reported as 360 nM.
Work on `Nc1ccc(C(=O)Nc2ccc(F)c(C(F)F)c2)cc1S(N)(=O)=O` yielded an EC90 [1] of 480 nM.
Molecule `CNc1ccc(C(=O)Nc2cc(F)c(F)c(F)c2)cc1S(N)(=O)=O` has an EC90 [1] of 20800 nM.
`Cc1cc(N)c(S(N)(=O)=O)cc1C(=O)Nc1ccc(F)c(Cl)c1` gave an EC90 [1] of 390 nM.
Work on `Nc1cc(Br)c(C(=O)Nc2cc(F)c(F)c(F)c2)cc1S(N)(=O)=O` yielded an EC90 [1] of 2780 nM.
For `Cc1cc(N)c(S(N)(=O)=O)cc1C(=O)Nc1cc(F)c(F)c(F)c1`, the “Ratio EC50” value [2] was 3.1, the Activity [3] was “Non-Toxic” and the Activity [4] was “Non-Toxic”. For the same molecule, the Cmax [5] was 3.6 µM, the “fold change (FC)” value [6] was 48.3 and the Activity [7] was “Non-Toxic”. The Activity [8] was “Non-Toxic”, the half-life [9] was 3.2 h and the “Ratio EC50” value [10] was 3.1. The “log(activity)” value [11] was 1.68, the Kp at 4 h [12] was 10 and the IC50 [13] was 12400 nM. The “Ratio EC50” value [14] was 3.1, the solubility kinetic [15] was 29.2 µM (≈ 10.5 µg/mL) and the remaining at 4 h [16] was 90%. The “Ratio EC50” value [17] was 3.1, the “Ratio EC50” value [18] was 3.1 and the fold change (FC) [19] was 16.9. For the same molecule, the Activity [20] was “Dde”, the “Ratio EC50” value [21] was 3.1 and the Vd [22] was 2.3 L/kg. For the same molecule, the “fold change (FC)” value [23] was 15.2, the Activity [24] was “Non-Toxic” and the IC50 [25] was greater than 30000 nM. The Activity [26] was “Non-Toxic”, the EC90 [1] was 260 nM and the remaining at 4 h [27] was 100%. The Activity [28] was “Tde”, the “Ratio EC50” value [29] was 3.1 and the “Ratio EC50” value [30] was 3.1. It also gave an AUC [31] of 33 µM·h, a bioavailability [32] of 114% and an IC50 [33] greater than 15000 nM. The “Ratio EC50” value [34] was 3.1, the “log(activity)” value [35] was 1.18 and the IC50 [36] was greater than 30000 nM. For the same molecule, the Activity [37] was “Non-Toxic” and the clearance [38] was 8 mL/min/kg.
For `O=C(Nc1cc(F)c(F)c(F)c1)c1ccc(F)c(S(=O)(=O)N2CCC(O)CC2)c1`, the EC90 [1] was 1130 nM.
For `Nc1ccc(C(=O)Nc2cc(F)c(F)c(F)c2)cc1S(N)(=O)=O`, the EC90 [1] was 490 nM.
`Cc1cc(NC(=O)c2cc(S(N)(=O)=O)c(N)cc2C)ccc1F` showed an EC90 [1] of 390 nM.
`Cc1cc(NC(=O)c2ccc(N)c(S(N)(=O)=O)c2)ccc1F` showed an EC90 [1] of 700 nM.
